Reference: patent publication US11332485B2, “Penicillin-binding protein inhibitors” (priority 2017, dated 2022)

Assays:
[1] = target: T1, PBP1a from Escherichia coli (Escherichia coli, UniProt P02918); assay: Radioligand competition binding assay with 14C-labeled boronic acid probe (Example 96); conditions: 14C-labeled probe 96 at 20 μM, PBP 0.1 μM; read-out: E. coli K12 PBP1a EC50
T1 construct: made in house
Method in brief: (§1)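 Purified PBP (0.1 μM) in 20 mM Tris pH 7.5, 500 mM NaCl, 0.1% Triton X-100 preincubated 60 min with inhibitor, then 60 min with 20 μM 14C-boronic acid probe. Bound probe recovered by spin desalting and counted by scintillation; EC50 is the concentration halving probe binding.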

[2] = target: T2, PBP1b from Escherichia coli (Escherichia coli, UniProt P02919); assay: as above; conditions: 14C-labeled probe 96 at 20 μM, PBP 0.1 μM; read-out: E. coli K12 PBP1b EC50
T2 construct: made in house
T2 sequence (P02919 whole entry): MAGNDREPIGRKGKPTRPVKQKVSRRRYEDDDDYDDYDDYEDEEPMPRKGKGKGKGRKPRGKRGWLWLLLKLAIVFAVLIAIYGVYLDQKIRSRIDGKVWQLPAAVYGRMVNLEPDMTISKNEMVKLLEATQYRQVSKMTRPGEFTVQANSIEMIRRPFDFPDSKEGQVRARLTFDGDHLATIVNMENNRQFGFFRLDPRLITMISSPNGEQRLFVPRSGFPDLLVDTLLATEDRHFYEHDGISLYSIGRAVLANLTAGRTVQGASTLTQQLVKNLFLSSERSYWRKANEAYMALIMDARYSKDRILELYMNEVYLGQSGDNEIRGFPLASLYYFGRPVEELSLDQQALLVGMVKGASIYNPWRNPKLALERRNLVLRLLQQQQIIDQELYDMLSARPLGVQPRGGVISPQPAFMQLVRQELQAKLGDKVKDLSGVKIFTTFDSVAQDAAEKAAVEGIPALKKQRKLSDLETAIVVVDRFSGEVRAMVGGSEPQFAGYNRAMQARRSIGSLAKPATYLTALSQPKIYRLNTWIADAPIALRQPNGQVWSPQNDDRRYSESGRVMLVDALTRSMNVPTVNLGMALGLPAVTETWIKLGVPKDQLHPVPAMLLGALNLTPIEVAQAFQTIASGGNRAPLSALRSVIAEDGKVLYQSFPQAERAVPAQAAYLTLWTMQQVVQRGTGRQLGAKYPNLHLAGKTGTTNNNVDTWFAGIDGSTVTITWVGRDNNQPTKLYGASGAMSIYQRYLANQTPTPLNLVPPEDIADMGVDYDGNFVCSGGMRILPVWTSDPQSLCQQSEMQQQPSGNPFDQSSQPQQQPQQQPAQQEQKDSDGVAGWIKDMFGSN
Method in brief: as §1

S. aureus ATCC 29213 = assay: Broth microdilution MIC assay; assay type: cell-based; conditions: Staphylococcus aureus, ATCC29213; broth microdilution, 16-20 hours at 37° C.; read-out: S. aureus 29213 MIC
Method in brief: (§2)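 Per CLSI: log-phase cultures (3-5 h, 37° C) seeded at 5×10^5 CFU/mL into cation-supplemented Mueller-Hinton broth containing 2-fold compound dilutions. After 16-20 h at 37° C, MIC taken visually as lowest growth-free well, for S. aureus ATCC 29213 and E. coli 901C.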

[3] = system: hyper-permeable E. coli 901C; assay: Broth microdilution MIC assay; assay type: cell-based; conditions: Escherichia coli, read-out: E. coli 901C MIC
Method in brief: as §2

[4] = system: E. coli DH5α/pLBII-CTX-M15; assay: Broth microdilution MIC assay, engineered strain producing CTX-M15; assay type: cell-based, Escherichia coli; conditions: Escherichia coli, read-out: E. coli DH5α/pLBII-CTX-M15 Microbiological Activity (MIC)
Method in brief: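 CLSI broth microdilution in cation-supplemented Mueller-Hinton broth, 2-fold compound dilutions, 5×10^5 CFU/mL inoculum, 16-20 h at 37° C, MIC read visually as lowest concentration without growth. E. coli DH5α carries CTX-M15 on pLBII under Lac promoter, or empty pLBII as control.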

T1 sequence (P02918 whole entry): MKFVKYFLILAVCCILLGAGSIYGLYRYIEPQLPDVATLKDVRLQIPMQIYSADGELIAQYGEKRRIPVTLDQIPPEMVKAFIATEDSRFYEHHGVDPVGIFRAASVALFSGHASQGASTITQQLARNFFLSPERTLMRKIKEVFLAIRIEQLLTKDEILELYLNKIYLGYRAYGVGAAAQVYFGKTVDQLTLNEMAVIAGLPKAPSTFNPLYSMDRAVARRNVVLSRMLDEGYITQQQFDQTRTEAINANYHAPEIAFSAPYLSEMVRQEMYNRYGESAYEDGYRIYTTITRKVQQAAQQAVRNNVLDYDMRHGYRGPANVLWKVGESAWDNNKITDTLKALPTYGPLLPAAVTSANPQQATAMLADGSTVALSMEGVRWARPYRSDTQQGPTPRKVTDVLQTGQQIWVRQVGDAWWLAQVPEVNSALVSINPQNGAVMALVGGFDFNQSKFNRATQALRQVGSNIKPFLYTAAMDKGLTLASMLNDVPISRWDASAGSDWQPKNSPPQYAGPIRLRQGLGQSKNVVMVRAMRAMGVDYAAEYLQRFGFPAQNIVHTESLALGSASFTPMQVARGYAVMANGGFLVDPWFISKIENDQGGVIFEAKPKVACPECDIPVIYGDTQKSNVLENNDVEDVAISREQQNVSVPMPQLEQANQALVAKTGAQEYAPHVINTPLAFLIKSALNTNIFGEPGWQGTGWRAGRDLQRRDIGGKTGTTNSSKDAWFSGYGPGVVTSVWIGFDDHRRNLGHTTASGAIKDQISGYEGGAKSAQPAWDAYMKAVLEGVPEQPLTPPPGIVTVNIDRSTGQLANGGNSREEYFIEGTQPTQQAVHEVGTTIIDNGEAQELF

`CCN1CCN(C(=O)NC(C(=O)N[C@H]2Cc3cccc(C(=O)O)c3OB2O)c2csc(N)n2)C(=O)C1=O` (stereo partly drawn) [Example 12, (3R)-3-(2-(2-aminothiazol-4-yl)-2-(4-ethyl-2,3-dioxopiperazine-1-carboxamido)acetamido)-2-hydroxy-3,4-dihydro-2H-benzo[e][1,2]oxaborinine-8-carboxylic acid] gave an EC50 [1] of less than 10 µM, an EC50 [2] of less than 10 µM and an MIC (S. aureus ATCC 29213) of 64 to 128 µg/mL. For the same compound, the MIC [3] was less than 64 µg/mL and the MIC [4] was 8 to 16 µg/mL.
